In US11453660B2, “Androgen receptor and glucocorticoid receptor modulators” (ONCOSTELLAE, S.L., priority 2017, dated 2022):

Tests used:
[1] = biological target: T1, Human Glucocorticoid Receptor (Homo sapiens, UniProt P04150); assay: Competition Binding in IM-9 Human Glucocorticoid Receptor (GR IM-9); details: cytosol from IM-9 cell line, 1.5 nM [3H]-Dexamethasone, 4° C. for 6 hours
T1 construct: endogenous in cells; host or cells: cytosol from IM-9 cell line
T1 sequence (P04150 1-777): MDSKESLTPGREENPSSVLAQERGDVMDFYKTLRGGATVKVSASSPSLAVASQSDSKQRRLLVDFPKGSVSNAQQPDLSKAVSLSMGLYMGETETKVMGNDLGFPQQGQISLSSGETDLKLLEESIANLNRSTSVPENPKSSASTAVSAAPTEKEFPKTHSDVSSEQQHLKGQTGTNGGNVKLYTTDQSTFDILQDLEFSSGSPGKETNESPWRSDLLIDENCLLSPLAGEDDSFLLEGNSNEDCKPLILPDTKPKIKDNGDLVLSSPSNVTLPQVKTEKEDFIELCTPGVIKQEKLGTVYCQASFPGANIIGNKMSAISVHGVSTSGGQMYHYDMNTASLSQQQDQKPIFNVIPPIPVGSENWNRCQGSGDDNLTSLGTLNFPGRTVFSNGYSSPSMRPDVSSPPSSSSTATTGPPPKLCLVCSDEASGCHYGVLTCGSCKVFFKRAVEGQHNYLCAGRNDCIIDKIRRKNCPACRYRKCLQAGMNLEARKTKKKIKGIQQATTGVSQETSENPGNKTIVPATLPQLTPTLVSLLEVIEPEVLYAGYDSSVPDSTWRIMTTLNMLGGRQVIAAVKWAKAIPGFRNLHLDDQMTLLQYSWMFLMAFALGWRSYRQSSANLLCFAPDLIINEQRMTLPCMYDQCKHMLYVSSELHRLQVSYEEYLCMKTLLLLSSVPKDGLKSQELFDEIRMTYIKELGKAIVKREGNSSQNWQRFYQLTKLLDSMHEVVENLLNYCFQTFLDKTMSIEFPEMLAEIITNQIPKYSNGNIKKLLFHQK
How it was run: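 Radioligand competition using 100 μg IM-9 cell cytosol and 1.5 nM [3H]-dexamethasone, incubated 6 h at 4° C in TES/molybdate buffer, pH 7.4. Filtration on PEI-treated GF/B filters, scintillation counting; nonspecific binding defined with 10 μM triamcinolone.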

human androgen receptor = biological target: T2, human androgen receptor (Homo sapiens, UniProt P10275, T878A); assay: Human Androgen Receptor Binding (radioligand binding, LnCap prostate cancer cell line); details: LnCap cells, displacement of [^3H]-methyltrienolone, 2 hours at 37° C.; read-out: AR LNCaP
T2 construct: endogenously expressed human androgen receptor using the LnCap prostate cancer cell line; endogenous in cells; host or cells: LNCaP prostate cancer cell line (whole cells)
T2 sequence (P10275 1-920 T878A): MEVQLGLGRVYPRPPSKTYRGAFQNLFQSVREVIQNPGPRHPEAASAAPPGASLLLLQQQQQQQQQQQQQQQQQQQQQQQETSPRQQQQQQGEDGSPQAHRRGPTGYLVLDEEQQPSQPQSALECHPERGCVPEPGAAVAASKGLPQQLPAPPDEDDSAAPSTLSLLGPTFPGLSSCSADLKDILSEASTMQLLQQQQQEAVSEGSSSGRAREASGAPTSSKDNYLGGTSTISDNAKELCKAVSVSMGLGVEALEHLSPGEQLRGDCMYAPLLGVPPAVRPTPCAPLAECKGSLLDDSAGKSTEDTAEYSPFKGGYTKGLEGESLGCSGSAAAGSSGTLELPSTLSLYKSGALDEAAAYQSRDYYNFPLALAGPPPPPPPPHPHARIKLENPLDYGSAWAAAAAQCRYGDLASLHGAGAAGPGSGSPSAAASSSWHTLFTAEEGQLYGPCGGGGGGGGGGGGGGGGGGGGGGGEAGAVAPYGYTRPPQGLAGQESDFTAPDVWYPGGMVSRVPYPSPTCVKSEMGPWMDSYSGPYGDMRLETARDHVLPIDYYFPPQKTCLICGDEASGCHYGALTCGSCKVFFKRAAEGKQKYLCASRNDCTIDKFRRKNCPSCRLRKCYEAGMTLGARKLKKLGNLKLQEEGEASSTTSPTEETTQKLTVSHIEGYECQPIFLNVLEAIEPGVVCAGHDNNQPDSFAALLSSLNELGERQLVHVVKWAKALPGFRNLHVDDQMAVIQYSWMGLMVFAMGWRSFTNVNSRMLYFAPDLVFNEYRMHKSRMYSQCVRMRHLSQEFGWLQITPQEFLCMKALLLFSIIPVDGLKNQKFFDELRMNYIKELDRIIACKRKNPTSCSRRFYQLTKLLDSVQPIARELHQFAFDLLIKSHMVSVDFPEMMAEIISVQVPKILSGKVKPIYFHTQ
How it was run: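 Whole-cell displacement of [3H]-methyltrienolone from endogenous AR (T878A) in LnCap cells, in RPMI with 0.1% BSA and triamcinolone acetonide. Compounds 10 μM to 0.1 nM in 1:10 steps, 2 h at 37 °C; cells washed, SDS-lysed, bound radioactivity by scintillation counting for IC50.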

| Structure (SMILES) | IC50 [1] | IC50 (human androgen receptor) |
| --- | --- | --- |
| COC(=O)C1=C(C)NC(N)=C(C(=O)OC2CCCC2)C1c1csc2c(C#N)cccc12 (stereo not drawn) [Example D27, 3-Cyclopentyl 5-methyl 2-amino-4-(7-cyanobenzo[b]thiophen-3-yl)-6-methyl-1,4-dihydropyridine-3,5-dicarboxylate] | < 100 nM | 100 to 1000 nM |
| CC(=O)C1=C(C)NC(N)=C(C(=O)OCC2CCCCC2)C1c1csc2c(C#N)cccc12 (stereo not drawn) [Example D30, Cyclohexylmethyl 5-acetyl-2-amino-4-(7-cyanobenzo[b]thiophen-3-yl)-6-methyl-1,4-dihydropyridine-3-carboxylate] | < 100 nM | 100 to 1000 nM |
| CC1=C(C(=O)C2CC2)C(c2csc3c(C#N)cccc23)C(C(=O)OCC2CC2)=C(N)N1 (stereo not drawn) [Example D31, Cyclopropylmethyl 2-amino-4-(7-cyanobenzo[b]thiophen-3-yl)-5-(cyclopropanecarbonyl)-6-methyl-1,4-dihydropyridine-3-carboxylate] | < 100 nM | 100 to 1000 nM |
| CC(=O)C1=C(C)NC(N)=C(C(=O)OCc2cccc(F)c2)C1c1csc2c(C#N)cccc12 (stereo not drawn) [Example D32, 3-Fluorobenzyl 5-acetyl-2-amino-4-(7-cyanobenzo[b]thiophen-3-yl)-6-methyl-1,4-dihydropyridine-3-carboxylate] | < 100 nM | 100 to 1000 nM |
| CC1=C(C(=O)OC2CC2)C(c2csc3c(C#N)cccc23)C(C(=O)OCC2CC2)=C(N)N1 (stereo not drawn) [Example D37, 5-Cyclopropyl 3-(cyclopropylmethyl) 2-amino-4-(7-cyanobenzo[b]thiophen-3-yl)-6-methyl-1,4-dihydropyridine-3,5-dicarboxylate] | < 100 nM | 100 to 1000 nM |
| COC(=O)C1=C(C)NC(N)=C(C(=O)OCC2CC2)C1c1csc2c(C#N)cc(F)cc12 (stereo not drawn) [Example D39, 3-(Cyclopropylmethyl) 5-methyl 2-amino-4-(7-cyano-5-fluorobenzo[b]thiophen-3-yl)-6-methyl-1,4-dihydropyridine-3,5-dicarboxylate] | < 100 nM | 100 to 1000 nM |
| COC(=O)C1=C(C)NC(N)=C(C(=O)OC(C)C)C1c1csc2c(C#N)cccc12 (stereo not drawn) [Example D41, 3-Isopropyl 5-methyl 2-amino-4-(7-cyanobenzo[b]thiophen-3-yl)-6-methyl-1,4-dihydropyridine-3,5-dicarboxylate] | < 100 nM | 100 to 1000 nM |
| COC(=O)C1=C(C)NC(N)=C(C(=O)OCC(C)(C)C)C1c1csc2c(C#N)cccc12 (stereo not drawn) [Example D43, 5-Methyl 3-neopentyl 2-amino-4-(7-cyanobenzo[b]thiophen-3-yl)-6-methyl-1,4-dihydropyridine-3,5-dicarboxylate] | < 100 nM | 100 to 1000 nM |
| CC1=C(C(=O)OCC2CC2)C(c2csc3c(C#N)cccc23)C(C(=O)OCC2CC2)=C(N)N1 (stereo not drawn) [Example D46, Bis(cyclopropylmethyl) 2-amino-4-(7-cyanobenzo[b]thiophen-3-yl)-6-methyl-1,4-dihydropyridine-3,5-dicarboxylate] | < 100 nM | ≥ 1000 nM |
| C#CCOC(=O)C1=C(C)NC(N)=C(C(=O)OCC2CC2)C1c1csc2c(C#N)cccc12 (stereo not drawn) [Example D47, 3-(Cyclopropylmethyl) 5-(prop-2-yn-1-yl) 2-amino-4-(7-cyanobenzo[b]thiophen-3-yl)-6-methyl-1,4-dihydropyridine-3,5-dicarboxylate] | < 100 nM | 100 to 1000 nM |
| COC(=O)C1=C(C2CC2)NC(C)=C(C(C)=O)C1c1csc2ncccc12 (stereo not drawn) [Example J23, Methyl 5-acetyl-2-cyclopropyl-6-methyl-4-(thieno[2,3-b]pyridin-3-yl)-1,4-dihydropyridine-3-carboxylate] | 100 to 1000 nM | < 100 nM |
| COC(=O)C1=C(C2CC2)NC(C)=C(C(C)=O)C1c1csc2c(Br)cccc12 (stereo not drawn) [Example J26, Methyl 5-acetyl-4-(7-bromobenzo[b]thiophen-3-yl)-2-cyclopropyl-6-methyl-1,4-dihydropyridine-3-carboxylate] | < 100 nM | < 100 nM |
| CC(=O)C1=C(C)NC(C2CC2)=C(C(=O)OCc2ccncc2)C1c1csc2c(Br)cccc12 (stereo not drawn) [Example J41, Pyridin-4-ylmethyl 5-acetyl-4-(7-bromobenzo[b]thiophen-3-yl)-2-cyclopropyl-6-methyl-1,4-dihydropyridine-3-carboxylate] | < 100 nM | < 100 nM |
| CC(=O)C1=C(C)NC(C2CC2)=C(C(=O)OCc2ccc(F)cc2)C1c1csc2ncccc12 (stereo not drawn) [Example J42, 4-fluorobenzyl 5-acetyl-2-cyclopropyl-6-methyl-4-(thieno[2,3-b]pyridin-3-yl)-1,4-dihydropyridine-3-carboxylate] | < 100 nM | 100 to 1000 nM |
| CC(=O)C1=C(C)NC(C)=C(C(=O)OCc2ccc(-c3ccncc3)cc2)C1c1csc2ncccc12 (stereo not drawn) [Example L1, 4-(pyridin-4-yl)benzyl 5-acetyl-2,6-dimethyl-4-(thieno[2,3-b]pyridin-3-yl)-1,4 dihydropyridine-3-carboxylate] | < 100 nM | ≥ 1000 nM |
| CC(=O)C1=C(C)NC(C)=C(C(=O)OCc2ccc(-c3cccnc3)cc2)C1c1csc2ncccc12 (stereo not drawn) [Example L2, 4-(pyridin-3-yl)benzyl 5-acetyl-2,6-dimethyl-4-(thieno[2,3-b]pyridin-3-yl)-1,4-dihydropyridine-3-carboxylate] | < 100 nM | ≥ 1000 nM |
| CC(=O)C1=C(C)NC(C)=C(C(=O)OCc2cccc(-c3ccncc3)c2)C1c1csc2ncccc12 (stereo not drawn) [Example L3, 3-(pyridin-4-yl)benzyl 5-acetyl-2,6-dimethyl-4-(thieno[2,3-b]pyridin-3-yl)-1,4-dihydropyridine-3-carboxylate] | < 100 nM | < 100 nM |
| CC(=O)C1=C(C)NC(C)=C(C(=O)OCc2cccc(-c3cccnc3)c2)C1c1csc2ncccc12 (stereo not drawn) [Example L4, 3-(pyridin-3-yl)benzyl 5-acetyl-2,6-dimethyl-4-(thieno[2,3-b]pyridin-3-yl)-1,4-dihydropyridine-3-carboxylate] | < 100 nM | < 100 nM |
